# Assay results: patent US11666658B2, “Rifamycin analogs and antibody-drug conjugates thereof” (Regeneron Pharmaceuticals, Inc., priority 2018, dated 2023)
# Key:
# S. aureus NRS384 = assay: Broth minimum inhibitory concentration (MIC) assay 2; type: cell-based, Staphylococcus aureus; conditions: S. aureus NRS384 in TSB, 24 hours at 37° C., OD600, median of at least two independent experiments; for MIC: Staphylococcus aureus, read-out: S. aureus Broth MIC
# Procedure: To test the potency of rifamycin analogs of the disclosure in vitro, a broth growth inhibition assay was developed. For the assay, S. aureus NRS384 was grown in Tryptic Soy Broth (TSB) overnight, then sub-cultured 1:50 in fresh TSB and grown for an additional two hours. The culture was then pelleted via centrifugation and washed twice in PBS. The culture was then diluted to 1×10^6 cfu/mL in TSB and 100 μL of the suspension was added per well to a 2 mL dilution plate in triplicate. […] The plates were sealed and incubated at 37° C. with shaking for 24 hours, then 150 μL of each sample was added to 96 well microtiter plates and the OD600 nm was read on a Spectramax i3 Minimax 300.
# The broth MIC experiments were assessed in at least two independent experiments and the median value is captured below unless indicated otherwise.
# [1] = system: intracellular S. aureus NRS384 in THP-1 macrophages; assay: Intracellular killing assay 2 (rifamycin analogs, S. aureus in THP-1 macrophages); type: cell-based, Staphylococcus aureus; conditions: Staphylococcus aureus, NRS384, 2 h; lowest concentration giving intracellular S. aureus below limit of detection (50 cfu/mL) in THP-1 macrophages; median of at least two experiments; read-out: S. aureus Intracellular killing MIC
# Procedure: THP-1 monocytic cell line was grown in media (RMPI+10% FBS+1% Penicillin/Streptomycin), then seeded at a density of 1e5 cells/well in a 96 well plate and differentiated into macrophages for three days prior to infection using 200 nM PMA. An overnight culture of S. aureus NRS384 was grown in RPMI, washed twice with PBS and resuspended at 1e7 cfu/mL in PBS. THP-1 were washed with warm media (RMPI without FBS) to remove the Penicillin/Streptomycin and then infected with the S. aureus suspension at a multiplicity of infection of 10:1 (S. aureus: macrophages). Plates were spun at 300×g for 5 minutes to synchronize adhesion of the bacteria, then incubated at 37° C. for 2 hours. Free-floating bacteria were removed by washing 2× with warm media and remaining extracellular S. aureus were killed by addition of media containing gentamicin (50 ug/mL). […] The compounds were added in media containing 50 µg/mL gentamicin to prevent extracellular growth of S. aureus. After 2 hours, plates were washed 2× with warm RPMI without FBS, and 100 ul of THP-1 lysis buffer (0.1% Triton in PBS) was added to each well. S. aureus survival was enumerated by colony forming units through serial dilution and plating onto TSA.
# The intracellular MIC value indicated represents the median value of at least two independent experiments, unless indicated otherwise.
MIC (S. aureus NRS384) [µM],S. aureus Broth MIC (S. aureus NRS384) [µM],SMILES,MIC [1] [µM]
0.0156,,CO[C@H]1/C=C/O[C@@]2(C)Oc3c(C)c(O)c4c(=O)c(c5oc6cc(OCC7CCCN(C)C7)ccc6nc-5c4c3C2=O)NC(=O)/C(C)=C\C=C\[C@H](C)[C@H](O)[C@@H](C)[C@@H](O)[C@@H](C)[C@H](OC(C)=O)[C@@H]1C (stereo partly drawn) [Analog 16f],1
0.0156,,CO[C@H]1/C=C/O[C@@]2(C)Oc3c(C)c(O)c4c(=O)c(c5oc6cc(OCC7CCN(C)CC7)ccc6nc-5c4c3C2=O)NC(=O)/C(C)=C\C=C\[C@H](C)[C@H](O)[C@@H](C)[C@@H](O)[C@@H](C)[C@H](OC(C)=O)[C@@H]1C [Analog 16g],0.2
0.0156,,CO[C@H]1/C=C/O[C@@]2(C)Oc3c(C)c(O)c4c(=O)c(c5oc6cc(OCCN7CCN(C)CC7)ccc6nc-5c4c3C2=O)NC(=O)/C(C)=C\C=C\[C@H](C)[C@H](O)[C@@H](C)[C@@H](O)[C@@H](C)[C@H](OC(C)=O)[C@@H]1C [Analog 16h],1
0.0156,,CO[C@H]1/C=C/O[C@@]2(C)Oc3c(C)c(O)c4c(=O)c(c5oc6cc(OCCN7CCOCC7)ccc6nc-5c4c3C2=O)NC(=O)/C(C)=C\C=C\[C@H](C)[C@H](O)[C@@H](C)[C@@H](O)[C@@H](C)[C@H](OC(C)=O)[C@@H]1C [Analog 16i],1
0.0625,,CO[C@H]1/C=C/O[C@@]2(C)Oc3c(C)c(O)c4c(=O)c(c5oc6cc(OCC7CCN(C)C7)ccc6nc-5c4c3C2=O)NC(=O)/C(C)=C\C=C\[C@H](C)[C@H](O)[C@@H](C)[C@@H](O)[C@@H](C)[C@H](OC(C)=O)[C@@H]1C (stereo partly drawn) [Analog 16j],1
0.000977,,CO[C@H]1/C=C/O[C@@]2(C)Oc3c(C)c(O)c4c(=O)c(c5oc6cc(OCCN7CCCC7)ccc6nc-5c4c3C2=O)NC(=O)/C(C)=C\C=C\[C@H](C)[C@H](O)[C@@H](C)[C@@H](O)[C@@H](C)[C@H](OC(C)=O)[C@@H]1C [Analog 16k],1
0.00391,,CO[C@H]1/C=C/O[C@@]2(C)Oc3c(C)c(O)c4c(=O)c(c5oc6cc(OCC7CCCN7C)ccc6nc-5c4c3C2=O)NC(=O)/C(C)=C\C=C\[C@H](C)[C@H](O)[C@@H](C)[C@@H](O)[C@@H](C)[C@H](OC(C)=O)[C@@H]1C (stereo partly drawn) [Analog 16l],1
0.00391,,CO[C@H]1/C=C/O[C@@]2(C)Oc3c(C)c(O)c4c(=O)c(c5oc6cc(OCCN7CCCCC7)ccc6nc-5c4c3C2=O)NC(=O)/C(C)=C\C=C\[C@H](C)[C@H](O)[C@@H](C)[C@@H](O)[C@@H](C)[C@H](OC(C)=O)[C@@H]1C [Analog 16m],1
0.0156,,CO[C@H]1/C=C/O[C@@]2(C)Oc3c(C)c(O)c4c(=O)c(c5oc6cc(OCCN7CCCCCC7)ccc6nc-5c4c3C2=O)NC(=O)/C(C)=C\C=C\[C@H](C)[C@H](O)[C@@H](C)[C@@H](O)[C@@H](C)[C@H](OC(C)=O)[C@@H]1C [Analog 16n],1
0.00391,,CO[C@H]1/C=C/O[C@@]2(C)Oc3c(C)c(O)c4c(=O)c(c5oc6cc(OCCCN(C)C)ccc6nc-5c4c3C2=O)NC(=O)/C(C)=C\C=C\[C@H](C)[C@H](O)[C@@H](C)[C@@H](O)[C@@H](C)[C@H](OC(C)=O)[C@@H]1C [Analog 16o],0.2
0.0156,,CO[C@H]1/C=C/O[C@@]2(C)Oc3c(C)c(O)c4c(=O)c(c5oc6cc(OCCCCN(C)C)ccc6nc-5c4c3C2=O)NC(=O)/C(C)=C\C=C\[C@H](C)[C@H](O)[C@@H](C)[C@@H](O)[C@@H](C)[C@H](OC(C)=O)[C@@H]1C [Analog 16p],1
,0.0156,CO[C@H]1/C=C/O[C@@]2(C)Oc3c(C)c(O)c4c(=O)c(c5oc6cc(F)ccc6nc-5c4c3C2=O)NCC(=O)/C(C)=C\C=C\[C@H](C)[C@H](O)[C@@H](C)[C@@H](O)[C@@H](C)[C@H](OC(C)=O)[C@@H]1C [Analog P3],
0.000977,,"CO[C@H]1/C=C/O[C@@]2(C)Oc3c(C)c(O)c4c(=O)c(c5oc6cc(N7CCC(N(C)C)CC7)cc(O)c6nc-5c4c3C2=O)NC(=O)/C(C)=C\C=C\[C@H](C)[C@H](O)[C@@H](C)[C@@H](O)[C@@H](C)[C@H](OC(C)=O)[C@@H]1C [Rifalog, reference compound]",
